In test [1] the target is T1, follicle-stimulating hormone (FSH) receptor (Rattus norvegicus, UniProt P20395).
T1 construct: endogenous in cells; host or cells: primary rat granulosa cells
T1 sequence (P20395 18-692): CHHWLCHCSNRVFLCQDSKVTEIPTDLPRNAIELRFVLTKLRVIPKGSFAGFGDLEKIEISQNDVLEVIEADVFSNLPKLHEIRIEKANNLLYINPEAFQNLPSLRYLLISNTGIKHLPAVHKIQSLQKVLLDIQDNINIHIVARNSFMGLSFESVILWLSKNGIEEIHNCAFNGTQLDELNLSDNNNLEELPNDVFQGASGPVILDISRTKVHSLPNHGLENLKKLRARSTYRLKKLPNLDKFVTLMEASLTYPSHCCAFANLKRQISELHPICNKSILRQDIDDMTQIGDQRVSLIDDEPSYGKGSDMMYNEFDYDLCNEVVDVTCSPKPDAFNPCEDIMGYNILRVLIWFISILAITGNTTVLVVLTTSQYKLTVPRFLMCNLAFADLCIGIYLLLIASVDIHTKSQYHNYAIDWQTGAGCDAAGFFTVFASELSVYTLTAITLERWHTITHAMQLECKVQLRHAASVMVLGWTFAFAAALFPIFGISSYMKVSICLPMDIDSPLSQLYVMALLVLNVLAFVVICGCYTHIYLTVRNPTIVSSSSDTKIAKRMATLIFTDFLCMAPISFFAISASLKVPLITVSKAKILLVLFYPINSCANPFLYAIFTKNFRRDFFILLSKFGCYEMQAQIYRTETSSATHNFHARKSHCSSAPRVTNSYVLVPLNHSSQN
Nature of the test: Rat granulosa EC50 FSH (Assay B). The note with it: for EC50: rat granulosa cells, read-out: Assay B: Rat granulosa EC50 FSH. In kind it is cell-based. The method, then:
Rat Granulosa EC50 FSH (Assay B)
The assay was performed pursuant to the teaching of Yanofsky et al. (2006) Allosteric activation of the follicle-stimulating hormone (FSH) receptor by selective, nonpeptide agonists (JBC 281(19): 13226-13233, which is incorporated by reference in the disclosure of the invention).

Another test concerns the target T2, FSHR (Homo sapiens, UniProt P23945).
T2 construct: expressed in transfected cells; host or cells: CHO (Cho-FSHR-LUC-1-1-43)
T2 sequence (P23945 18-695): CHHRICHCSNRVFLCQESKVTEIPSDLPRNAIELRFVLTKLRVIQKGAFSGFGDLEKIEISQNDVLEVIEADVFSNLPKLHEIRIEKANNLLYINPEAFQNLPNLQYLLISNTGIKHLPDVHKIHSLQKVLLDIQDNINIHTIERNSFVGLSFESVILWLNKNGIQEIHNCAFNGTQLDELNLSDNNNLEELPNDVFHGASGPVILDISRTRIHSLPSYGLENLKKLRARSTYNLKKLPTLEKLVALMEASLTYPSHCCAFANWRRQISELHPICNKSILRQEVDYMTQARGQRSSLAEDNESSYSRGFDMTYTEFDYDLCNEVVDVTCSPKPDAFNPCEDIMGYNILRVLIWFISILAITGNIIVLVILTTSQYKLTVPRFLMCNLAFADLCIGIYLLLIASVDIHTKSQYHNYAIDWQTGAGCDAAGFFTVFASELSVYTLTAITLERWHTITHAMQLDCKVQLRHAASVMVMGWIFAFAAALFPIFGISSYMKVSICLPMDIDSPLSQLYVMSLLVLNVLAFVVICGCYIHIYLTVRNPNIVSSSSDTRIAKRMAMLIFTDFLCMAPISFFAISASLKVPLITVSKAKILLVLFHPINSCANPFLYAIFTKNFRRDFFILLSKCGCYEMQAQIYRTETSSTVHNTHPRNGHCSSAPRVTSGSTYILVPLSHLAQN
Nature of the test: EC50 of cyclic AMP production in CHO FSHR cells + EC20 FSH (Assay A). Type of test: cell-based. The note with it: CHO FSHR cells + EC20 FSH, cAMP HTRF; read-out: Assay A: EC50 of cyclic AMP production. The method, boiled down:
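cAMP HTRF read-out (665 nm/620 nm ratio) after 1 h at 37° C of Cho-FSHR-LUC cells treated with serially diluted test compound plus EC20 FSH ([…]) and IBMX (final 200 μM). Responses given as percent of maximal FSH-standard effect.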
For orientation: Time-resolved FRET reads energy transfer from a long-lived donor to a nearby acceptor.

One may read the EC50 as the midpoint of the concentration-response curve.

For the compound `COc1cc2c(cc1-c1ccn(C)n1)-c1c(c(C(=O)N3CCOCC3C)nn1-c1ccsc1)CO2` (centres unmarked) [Compound 218], the EC50 is 100 to 1000 nM in test [1] and less than 100 nM at FSHR.

Consider `COc1cc2c(cc1C1=CCCCO1)-c1c(c(C(=O)N(C)C(C)(C)C)nn1-c1ccsc1)CO2` [Compound 148, 8-(5,6-Dihydro-4H-pyran-2-yl)-7-methoxy-1-thiophen-3-yl-1,4-dihydro-chromeno[4,3-c]pyrazole-3-carboxylic acid tert-butyl-methyl-amide], for which the results for the EC50 (in test [1]; on FSHR) were 100 to 1000 nM and less than 100 nM, respectively.

On to `COc1cc2c(cc1-c1ccns1)-c1c(c(C(=O)N(C)C(C)(C)C)nn1-c1ccsc1)CO2` [Compound 105, 8-Isothiazol-5-yl-7-methoxy-1-thiophen-3-yl-1,4-dihydro-chromeno[4,3-c]pyrazole-3-carboxylic acid tert-butyl-methyl-amide], for which the half-maximal effective concentration (EC50) (in test [1]; at FSHR) was less than 100 nM throughout.

In the case of `COc1cc2c(cc1C=C(C)C)-c1c(c(C(=O)NC(C)(C)CO)nn1-c1ccsc1)CO2` [Compound 10, 7-Methoxy-8-(2-methyl-propenyl)-1-thiophen-3-yl-1,4-dihydro-chromeno[4,3-c]pyrazole-3-carboxylic acid (2-hydroxy-1,1-dimethyl-ethyl)-amide], the EC50 in test [1] was 1000 to 5000 nM; on FSHR, 100 to 1000 nM.

With `COC(=O)C1CCCN(C(=O)c2nn(-c3ccsc3)c3c2COc2cc(OC)c(C=C(C)C)cc2-3)CC1` (centres unmarked) [Compound 17, 1-[7-Methoxy-8-(2-methyl-propenyl)-1-thiophen-3-yl-1,4-dihydro-chromeno[4,3-c]pyrazole-3-carbonyl]-azepane-4-carboxylic acid methyl ester], the EC50 in test [1] is greater than 5000 nM; at FSHR, 100 to 1000 nM.

`COc1cc2c(cc1-c1ccn(C)c1)-c1c(c(C(=O)N3CCN(C(=O)OC(C)(C)C)CC3(C)C)nn1-c1ccsc1)CO2` [Compound 157, 4-[7-Methoxy-8-(1-methyl-1H-pyrrol-3-yl)-1-thiophen-3-yl-1,4-dihydro-chromeno[4,3-c]pyrazole-3-carbonyl]-3,3-dimethyl-piperazine-1-carboxylic acid tert-butyl ester]: the EC50 (in test [1]; on FSHR) was 100 to 1000 nM in each case.

As to `COc1cc2c(cc1-c1cnn(CCN3CCOCC3)c1)-c1c(c(C(=O)N3CCOCC3(C)C)nn1-c1ccsc1)CO2` [Compound 202, (3,3-Dimethyl-morpholin-4-yl)-{7-methoxy-8-[1-(2-morpholin-4-yl-ethyl)-1H-pyrazol-4-yl]-1-thiophen-3-yl-1,4-dihydro-chromeno[4,3-c]pyrazol-3-yl}-methanone], the concentration for a half-maximal effect (EC50) (in test [1]; on FSHR) was 100 to 1000 nM in each case.

`COc1cc2c(cc1OC(C)C)-c1c(c(C(=O)N(C)C(C)(C)C)nn1-c1ccsc1)CO2` [Compound 19, 8-Isopropoxy-7-methoxy-1-thiophen-3-yl-1,4-dihydro-chromeno[4,3-c]pyrazole-3-carboxylic Acid tert-butyl-methyl-amide]: the EC50 in test [1] is 1000 to 5000 nM; on FSHR it was less than 100 nM.

As for `COc1cc2c(cc1C=C(C)C)-c1c(c(C(=O)N(C)CCN3CCOC3=O)nn1-c1ccsc1)CO2` [Compound 23, 7-Methoxy-8-(2-methyl-propenyl)-1-thiophen-3-yl-1,4-dihydro-chromeno[4,3-c]pyrazole-3-carboxylic Acid methyl-[2-(2-oxo-oxazolidin-3-yl)-ethyl]-amide], the EC50 (in test [1]; at FSHR) was less than 100 nM each time.

In the case of `COc1cc2c(cc1-c1cn(C)nc1C)-c1c(c(C(=O)N(C)C(C)(C)C)nn1-c1ccsc1)CO2` [Compound 150, 8-(1,3-Dimethyl-1H-pyrazol-4-yl)-7-methoxy-1-thiophen-3-yl-1,4-dihydro-chromeno[4,3-c]pyrazole-3-carboxylic acid tert-butyl-methyl-amide], the values for the EC50 (in test [1]; on FSHR) were 100 to 1000 nM and less than 100 nM, respectively.

Turning to `COc1cc2c(cc1Br)-c1c(c(C(=O)N(C)C(C)(C)C)nn1-c1ccsc1)CO2` [Compound 4, 8-Bromo-7-methoxy-1-thiophen-3-yl-1,4-dihydro-chromeno[4,3-c]pyrazole-3-carboxylic Acid tert-butyl-methyl-amide], the Emax at 6 µM in test [1] (read-out: Assay B: percental effect (response) relative to the maximum response of the FSH standard) came out at 62%. Besides, the EC50 on FSHR was in the range of 100 to 1000 nM.

With `COc1cc2c(cc1-c1c[nH]nc1C)-c1c(c(C(=O)N3CCOCC3(C)C)nn1-c1ccsc1)CO2` [Compound 95, (3,3-Dimethyl-morpholin-4-yl)-[7-methoxy-8-(3-methyl-1H-pyrazol-4-yl)-1-thiophen-3-yl-1,4-dihydro-chromeno[4,3-c]pyrazol-3-yl]-methanone], the half-maximal effective concentration (EC50) in test [1] was 100 to 1000 nM; on FSHR it was less than 100 nM.

In the case of `COC/C=C/c1cc2c(cc1OC)OCc1c(C(=O)N(C)C(C)(C)C)nn(-c3ccsc3)c1-2` [Compound 147, 7-Methoxy-8-((E)-3-methoxy-propenyl)-1-thiophen-3-yl-1,4-dihydro-chromeno[4,3-c]pyrazole-3-carboxylic acid tert-butyl-methyl-amide], the values for the EC50 (in test [1]; at FSHR) were 100 to 1000 nM and less than 100 nM, respectively.

`COc1cc2c(cc1C1=CCOC1)-c1c(c(C(=O)N(C)C(C)(C)C)nn1-c1ccsc1)CO2` [Compound 151, 8-(2,5-Dihydro-furan-3-yl)-7-methoxy-1-thiophen-3-yl-1,4-dihydro-chromeno[4,3-c]pyrazole-3-carboxylic acid tert-butyl-methyl-amide]: the EC50 is 100 to 1000 nM in test [1] and less than 100 nM on FSHR.

In the case of `COc1cc2c(cc1-c1ccn(C)c1)-c1c(c(C(=O)NC3(C)COC3)nn1-c1ccsc1)CO2` [Compound 99, 7-Methoxy-8-(1-methyl-1H-pyrrol-3-yl)-1-thiophen-3-yl-1,4-dihydro-chromeno[4,3-c]pyrazole-3-carboxylic acid (3-methyl-oxetan-3-yl)-amide], the EC50 (in test [1]; on FSHR) was 100 to 1000 nM throughout.

Take `COc1cc2c(cc1C=C(C)C)-c1c(c(C(=O)NCCCN3CCOC3=O)nn1-c1ccsc1)CO2` [Compound 9, 7-Methoxy-8-(2-methyl-propenyl)-1-thiophen-3-yl-1,4-dihydro-chromeno[4,3-c]pyrazole-3-carboxylic acid [3-(2-oxo-oxazolidin-3-yl)-propyl]-amide]: the Emax at 30 µM in test [1] (@ 30 μM, read-out: Assay B: percental effect (response) relative to the maximum response of the FSH standard) came out at 40.5%. In addition, the EC50 on FSHR was 1000 to 5000 nM.

On to `COc1cc2c(cc1-c1ccnn1C)-c1c(c(C(=O)N3CCOCC3(C)C)nn1-c1ccsc1)CO2` [Compound 108, (3,3-Dimethyl-morpholin-4-yl)-[7-methoxy-8-(2-methyl-2H-pyrazol-3-yl)-1-thiophen-3-yl-1,4-dihydro-chromeno[4,3-c]pyrazol-3-yl]-methanone], for which the EC50 was 1000 to 5000 nM in test [1] and less than 100 nM at FSHR.

On to `[2H]C([2H])([2H])N(CCN(C(=O)c1nn(-c2ccsc2)c2c1COc1cc(OC)c(CC(C)C)cc1-2)C([2H])([2H])[2H])C(C)=O` [Compound 82], for which the EC50 was 1000 to 5000 nM in test [1] and less than 100 nM on FSHR.

In the case of `COc1cc2c(cc1-c1ccn(C)n1)-c1c(c(C(=O)N3CCOCC3(C)C)nn1-c1ccsc1)CO2` [Compound 94, (3,3-Dimethyl-morpholin-4-yl)-[7-methoxy-8-(1-methyl-1H-pyrazol-3-yl)-1-thiophen-3-yl-1,4-dihydro-chromeno[4,3-c]pyrazol-3-yl]-methanone], the values for the EC50 (in test [1]; at FSHR) were 100 to 1000 nM and less than 100 nM, respectively.
